Measurements: patent publication US9694016B2 (Novartis AG, priority 2013, dated 2017)

Target: b-Raf (V600E) (Homo sapiens (Human), UniProt P15056, V600E)
Conditions: read-out: b-Raf IC-50; AlphaScreen, 60 min pre-incubation, 3 hours reaction

Sequence of b-Raf (V600E) (P15056 whole entry V600E): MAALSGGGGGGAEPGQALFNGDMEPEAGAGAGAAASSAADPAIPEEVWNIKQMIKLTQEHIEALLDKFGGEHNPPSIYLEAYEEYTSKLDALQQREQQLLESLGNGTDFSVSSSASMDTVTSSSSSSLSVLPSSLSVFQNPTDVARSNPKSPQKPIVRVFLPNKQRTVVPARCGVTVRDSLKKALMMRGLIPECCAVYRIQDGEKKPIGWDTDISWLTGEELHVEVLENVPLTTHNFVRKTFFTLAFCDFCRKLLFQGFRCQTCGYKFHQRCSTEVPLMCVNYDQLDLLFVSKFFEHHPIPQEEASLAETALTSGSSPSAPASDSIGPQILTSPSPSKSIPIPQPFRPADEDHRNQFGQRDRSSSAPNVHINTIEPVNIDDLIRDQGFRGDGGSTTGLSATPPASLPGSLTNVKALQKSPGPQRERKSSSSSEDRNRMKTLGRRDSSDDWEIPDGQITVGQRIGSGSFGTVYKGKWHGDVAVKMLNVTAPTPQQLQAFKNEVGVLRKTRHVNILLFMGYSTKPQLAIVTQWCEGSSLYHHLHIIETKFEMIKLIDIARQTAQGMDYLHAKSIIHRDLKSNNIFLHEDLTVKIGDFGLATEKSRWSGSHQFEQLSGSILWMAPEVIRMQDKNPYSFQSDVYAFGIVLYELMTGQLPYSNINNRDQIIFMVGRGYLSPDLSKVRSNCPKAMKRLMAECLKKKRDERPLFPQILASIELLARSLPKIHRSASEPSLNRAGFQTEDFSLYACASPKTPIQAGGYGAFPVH

Row | IC50 [nM] | Structure (SMILES)
1 | 2.8 | Cc1ccc(NC(=O)c2cc(CN(C)C)cc(C(F)(F)F)c2)cc1-c1cc(N2CCOCC2)n(C)c(=O)c1 [Example 497, 3-((dimethylamino)methyl)-N-(4-methyl-3-(1-methyl-6-morpholino-2-oxo-1,2-dihydropyridin-4-yl)phenyl)-5-(trifluoromethyl)benzamide]
2 | 4.3 | Cc1ncc(NC(=O)c2cccc(C(F)(F)F)c2)cc1-c1cc(N2CCOCC2)nc(NCCO)n1 [Example 735, N-(5-(2-((2-hydroxyethyl)amino)-6-morpholinopyrimidin-4-yl)-6-methylpyridin-3-yl)-3-(trifluoromethyl)benzamide]
3 | 24.7 | Cc1ncc(NC(=O)c2ccnc(C(C)(C)O)c2)cc1-c1cc(N2CCOCC2)n2nccc2n1 [Example 797, 2-(2-hydroxypropan-2-yl)-N-(6-methyl-5-(7-morpholinopyrazolo[1,5-a]pyrimidin-5-yl)pyridin-3-yl)isonicotinamide]
4 | 16.5 | CCOc1ncc(-c2cc(NC(=O)c3cc(CN(C)C)cc(C(F)(F)F)c3)cnc2C)nc1N1CCOCC1 [Example 545, 3-((dimethylamino)methyl)-N-(5-(5-ethoxy-6-morpholinopyrazin-2-yl)-6-methylpyridin-3-yl)-5-(trifluoromethyl)benzamide]
5 | 1.3 | Cc1ncc(NC(=O)c2cccc(C(F)(F)F)c2)cc1-c1cc(N2CCOCC2)c(OC2CCOCC2)nn1 [Example 636, N-(6-methyl-5-(5-morpholino-6-((tetrahydro-2H-pyran-4-yl)oxy)pyridazin-3-yl)pyridin-3-yl)-3-(trifluoromethyl)benzamide]
6 | 30.9 | Cc1ncc(NC(=O)c2ccnc(C(C)(C)C#N)c2)cc1-c1cc(N2CCOCC2)nc(NC2(CO)CCOCC2)n1 [Example 753, 2-(2-cyanopropan-2-yl)-N-(5-(2-((4-(hydroxymethyl)tetrahydro-2H-pyran-4-yl)amino)-6-morpholinopyrimidin-4-yl)-6-methylpyridin-3-yl)isonicotinamide]
7 | 23.2 | CCNc1nc(-c2cc(NC(=O)c3cc(C(F)(F)F)c(=O)n(CC)c3)cnc2C)cc(N2CCOCC2)n1 [Example 720, 1-ethyl-N-(5-(2-(ethylamino)-6-morpholinopyrimidin-4-yl)-6-methylpyridin-3-yl)-6-oxo-5-(trifluoromethyl)-1,6-dihydropyridine-3-carboxamide]
8 | 17.8 | Cc1ccc(NC(=O)c2ccnc(C(C)(C)C#N)c2)cc1-c1cc(N2CCOCC2)nc(N(C)C)n1 [Example 755, 2-(2-cyanopropan-2-yl)-N-(3-(2-(dimethylamino)-6-morpholinopyrimidin-4-yl)-4-methylphenyl)isonicotinamide]

Same assay, conditions: read-out: b-Raf IC-50; AlphaScreen, 60 min pre-incubation, reaction 3 hours at room temperature

Row | IC50 [nM] | Structure (SMILES)
9 | 2.01 | Cc1ccc(NC(=O)c2cncc(C(F)(F)F)c2)cc1-c1cc(N2CCOCC2)c(=O)n(C)c1 [Example 904, N-(4-methyl-3-(1-methyl-5-morpholino-6-oxo-1,6-dihydropyridin-3-yl)phenyl)-5-(trifluoromethyl)nicotinamide]
10 | 1.48 | Cc1ccc(NC(=O)c2ccnc(C(F)(F)F)c2)cc1-c1cc(-c2c(C)n[nH]c2C)nc(N2CCOCC2)c1 [Example 1127, N-(3-(2-(3,5-dimethyl-1H-pyrazol-4-yl)-6-morpholinopyridin-4-yl)-4-methylphenyl)-2-(trifluoromethyl)isonicotinamide]
11 | 9.66 | Cc1ncc(NC(=O)c2cccc(C(F)(F)F)c2)cc1-c1cnc(CC2(O)CCOCC2)c(N2CCOCC2)c1 [Example 993, N-(6′-((4-hydroxytetrahydro-2H-pyran-4-yl)methyl)-2-methyl-5′-morpholino-[3,3′-bipyridin]-5-yl)-3-(trifluoromethyl)benzamide]
12 | 12.7 | Cc1ccc(NC(=O)c2ccnc(C(C)(C)F)c2)cc1-c1cc(NC[C@@H](C)O)nc(N2CCOCC2)n1 [Example 1025, (R)-2-(2-fluoropropan-2-yl)-N-(3-(6-((2-hydroxypropyl)amino)-2-morpholinopyrimidin-4-yl)-4-methylphenyl)isonicotinamide]
13 | 1.35 | Cc1ncc(NC(=O)c2ccnc(C3CC3)c2)cc1-c1cnc(OC2CC3(COC3)C2)c(N2CCOCC2)c1 [Example 966, N-(6′-(2-oxaspiro[3.3]heptan-6-yloxy)-2-methyl-5′-morpholino-[3,3′-bipyridin]-5-yl)-2-cyclopropylisonicotinamide]

Same assay, conditions: read-out: b-Raf IC-50; Table 2; AlphaScreen, 3 hours reaction

Row | IC50 [nM] | Structure (SMILES)
14 | 3.8 | Cc1ncc(NC(=O)c2cnnc(C(F)(F)F)c2)cc1-c1cnc(Cl)c(N2CCOCC2)c1 [Example 292, N-(6′-chloro-2-methyl-5′-morpholino-[3,3′-bipyridin]-5-yl)-6-(trifluoromethyl)pyridazine-4-carboxamide]
15 | 5.7 | CCOc1ncc(-c2cc(NC(=O)c3cc(C(F)(F)F)c(=O)n(CC)c3)cnc2C)cc1N1CCOCC1 [Example 241, N-(6′-ethoxy-2-methyl-5′-morpholino-[3,3′-bipyridin]-5-yl)-1-ethyl-6-oxo-5-(trifluoromethyl)-1,6-dihydropyridine-3-carboxamide]
16 | 10.1 | Cc1cn(-c2cc(NC(=O)c3ccc(C)c(-c4cc(N5CCOCC5)c(=O)n(C)c4)c3)cc(C(F)(F)F)c2)cn1 [Example 428, 4-methyl-N-(3-(4-methyl-1H-imidazol-1-yl)-5-(trifluoromethyl)phenyl)-3-(1-methyl-5-morpholino-6-oxo-1,6-dihydropyridin-3-yl)benzamide]
17 | 0.6 | Cc1ncc(NC(=O)c2cccc(C(F)(F)F)c2)cc1-c1cc(N2CCOCC2)nc(N2CCOCC2)c1 [Example 77, N-(2-methyl-2′,6′-dimorpholino-[3,4′-bipyridin]-5-yl)-3-(trifluoromethyl)benzamide]
18 | 200 | CCOc1ncc(-c2cc(NC(=O)c3cnnc(C(F)(F)F)c3)cnc2C)cc1N1CCOC[C@@H]1C [Example 286, (S)—N-(6′-ethoxy-2-methyl-5′-(3-methylmorpholino)-[3,3′-bipyridin]-5-yl)-6-(trifluoromethyl)pyridazine-4-carboxamide]
19 | 0.6 | Cc1ccc(NC(=O)c2cccc(S(C)(=O)=O)c2)cc1-c1ccnc(N2CCOCC2)c1 [Example 68, N-(4-methyl-3-(2-morpholinopyridin-4-yl)phenyl)-3-(methylsulfonyl)benzamide]
20 | 18.8 | Cc1ncc(NC(=O)c2ccnc(C(C)(C)C#N)c2)cc1-c1cncc(N2CCOCC2)c1 [Example 297, 2-(2-cyanopropan-2-yl)-N-(2-methyl-5′-morpholino-[3,3′-bipyridin]-5-yl)isonicotinamide]
21 | 9 | COc1ncc(-c2cc(NC(=O)c3cnnc(C(F)(F)F)c3)cnc2Cl)cc1N1CCOCC1 [Example 263, N-(2-chloro-6′-methoxy-5′-morpholino-[3,3′-bipyridin]-5-yl)-6-(trifluoromethyl)pyridazine-4-carboxamide]
22 | 2.5 | Cc1ccc(NC(=O)c2ccnc(C(C)(C)F)c2)cc1-c1cc(N2CCOCC2)c(=O)n(C)c1 [Example 355, 2-(2-fluoropropan-2-yl)-N-(4-methyl-3-(1-methyl-5-morpholino-6-oxo-1,6-dihydropyridin-3-yl)phenyl)isonicotinamide]
23 | 53.4 | Cc1ncc(NC(=O)c2ccnc(C(C)(C)C#N)c2)cc1-c1cc(N2CCOCC2)c(=O)n(C)n1 [Example 167, 2-(2-cyanopropan-2-yl)-N-(6-methyl-5-(1-methyl-5-morpholino-6-oxo-1,6-dihydropyridazin-3-yl)pyridin-3-yl)isonicotinamide]
